{"source": "patent US4355025A", "about": "“Biologically active amides” (Burroughs Wellcome Co., priority 1975, dated 1982)", "system": "mice of the NZO strain (genetically obese, hyperglycaemic and hyperinsulinaemic)", "experiment": "APP given intraperitoneally to NZO mice: blood glucose, serum insulin, weight, oral Glucose Tolerance Test", "assay_type": "in vivo", "details": "mean of APP-treated group, 1 μg i.p. 3 times a day; for Serum Insulin: Beef equivalent", "description": "It has now unexpectedly been found by the Applicants that these vertebrate pancreatic polypeptides (hereinafter collectively referred to as VPPs, which term should be understood to include such polypeptides of avian, amphibian, piscian, reptilian or mammalian origin) are as a class effective in lowering the concentration in the blood of both glucose and insulin when administered to a strain (NZO) of genetically obese, hyperglycaemic and hyperinsulinaemic mice. At the same time these treated mice lose weight as compared with untreated control animals and give normalized values in the oral Glucose Tolerance Test standard in the art.\nAPP (Endocrinology 83, 1323 (1968)) (1 μg) in water (0.1 ml) was administered by intraperitoneal injection 3 times a day for 25 days to each of 5 male mice (age 6 weeks, weight 23 g) of the NZO strain (genetically obese, hyperglycaemic and hyperinsulinaemic). 5 Matched control animals each received plain water (0.1 ml) by the same route and according to the same schedule. The blood glucose and serum insulin levels were measured at the start and during the course of the experiment and the mean results for the APP-treated group are shown in Table 1. No change in these levels from the values on day 0, which were the same as in the treated group, occurred in the control group over the course of the experiment."}
{"substance": "avian pancreatic polypeptide [APP]", "values": [{"measurement": "Serum Insulin", "setting": "Day 0 (start)", "value": 189, "unit": "μU/ml"}, {"measurement": "Blood glucose", "setting": "Day 0 (start), 5 male NZO mice", "value": 175, "unit": "mg. %"}, {"measurement": "Blood glucose", "setting": "Day 5", "value": 162, "unit": "mg. %"}, {"measurement": "Serum Insulin", "setting": "Day 10", "value": 99, "unit": "μU/ml"}, {"measurement": "Blood glucose", "setting": "Day 15", "value": 154, "unit": "mg. %"}, {"measurement": "Serum Insulin", "setting": "Day 20", "value": 47, "unit": "μU/ml"}, {"measurement": "Blood glucose", "setting": "Day 25", "value": 136, "unit": "mg. %"}]}
